Laboratory results published in patent US5936105A, “14-EPI-19-nor-vitamin D compounds and methods” (Tetrionics, Inc., priority 1998, dated 1999).
“Also recorded” adds a separate entry of the source.

Legend:
[1] = target: T1, Procine Intestinal Nuclear Vitamin D Receptor (Sus scrofa, UniProt A3RGC1); assay: biochemical
T1 sequence (A3RGC1 1-427): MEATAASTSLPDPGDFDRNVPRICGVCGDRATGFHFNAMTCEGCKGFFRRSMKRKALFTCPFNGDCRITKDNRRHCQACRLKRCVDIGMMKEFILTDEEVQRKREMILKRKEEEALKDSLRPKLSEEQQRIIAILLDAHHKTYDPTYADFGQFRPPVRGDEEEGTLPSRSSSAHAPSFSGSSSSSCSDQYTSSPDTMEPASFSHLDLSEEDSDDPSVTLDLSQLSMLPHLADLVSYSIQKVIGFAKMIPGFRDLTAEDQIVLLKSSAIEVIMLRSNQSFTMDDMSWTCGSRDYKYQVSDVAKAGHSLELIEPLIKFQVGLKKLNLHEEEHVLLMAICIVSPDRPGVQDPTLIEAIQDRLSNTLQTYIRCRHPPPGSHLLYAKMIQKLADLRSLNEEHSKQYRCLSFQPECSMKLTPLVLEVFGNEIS
Description: Binding to the Procine Intestinal Nuclear Vitamin D Receptor.

HL-60 cells [2] = assay: Differentiation of HL-60 cells (NBT reduction assay); assay type: cell-based, human; details: for Activity vs. 1,25(OH)2 D3: HL-60 differentiation, ratio to 1,25(OH)2 D3; for EC50: Homo sapiens, read-out: EC50 (concentration to induce differentiation in 50% of the cells; text: IC50), NBT reduction, HL-60; for in vitro differentiative (D) and anti-proliferative (I) activity, in words: HL-60, differentiation and proliferation; for differentiative activity (D) used for T.P.: relative to 1,25-(OH)2 D3
Protocol: Differentiation of HL-60 Cells.
The ability of the 14-epi-19-nor-vitamin analogs and the corresponding 19-nor-vitamin D analogs to induce differentiation in the human HL-60 promyelocyte cell line was measured by a nitroblue tetrazolium (NBT) reduction assay.

[3] = target: T1, Procine Intestinal Nuclear Vitamin D Receptor; details: VDR binding, ratio to 1,25(OH)2 D3
D deficient rat [4] = assay: In vivo calcemic activity: serum calcium / bone calcium mobilization (atomic absorption spectroscopy); details: for SERUM CALCIUM: intraperitoneal, mean ± SEM; for effect on bone, in words: rat, in vivo
Protocol: (§1) In vivo Calcemic Activity
(§2) These studies were carried out with five to six rats per group. Male weanling rats were fed a vitamin D-deficient diet for one week and then shifted to the same diet but with calcium removed for three weeks. The hypocalcemic rats were dosed intraperitoneally with the indicated dose of compound per day for a total of 7 days. Twenty-four hours after the last dose all animals were killed by decapitation and serum calcium was measured by atomic absorption spectroscopy in the presence of 1.0% lanthanium chloride. Intestinal calcium transport was measureed by the everted gut sac technique of Martin and Deluca.

D deficient rat [5] = assay: In vivo calcemic activity: intestinal calcium transport (everted gut sac technique); details: for TRANSPORT (S/M): intraperitoneal, mean ± SEM
Protocol: as §1, §2

HL-60 cells [6] = assay: Inhibition of HL-60 cell proliferation (thymidine incorporation assay); assay type: cell-based, human; details: for Activity vs. 1,25(OH)2 D3: HL-60 proliferation, ratio to 1,25(OH)2 D3; for EC50: Homo sapiens, read-out: EC50 (50% reduction in thymidine incorporation; text: IC50), thymidine incorporation, HL-60; for anti-proliferative activity (I) used for T.P.: relative to 1,25-(OH)2 D3
Protocol: Inhibition of HL-60 Cell Proliferation.
The ability of the 14-epi-19-nor-vitamin D analogs and the corresponding 19-nor-vitamin D analogs to inhibit proliferation of the HL-60 cell line was measured by thymidine incorporation assay.

leukemia cells = details: U.S. Pat. No. 4,391,802; cited from earlier work
D deficient rat [7] = assay: In vivo activation of pro-drug (25-hydroxylation by the liver); details: inferred from in vivo activity
Protocol: as §2
The in vivo results also establish the PRO-DRUG concept for the 14-epi-19-nor-25-deoxy-analog. […] This minimal bone activity resulting in lower calcemic toxicity may have important clinical implications.

D deficient rat [8] = assay: In vivo calcemic activity, overall; details: for calcemic activity used for T.P.: relative to 1,25-(OH)2 D3; for calcemic activity, in words: relative to 1,25-(OH)2 D3 or 19-nor compounds
Protocol: as §1, §2

[9] = TABLE 2, 250 pmol/d/7 days, 5 rats
[10] = TABLE 2, 625 pmol/d/7 days, 5 rats
[11] = TABLE 2, 1300 pmol/d/7 days, 5 rats
[12] = TABLE 3, 260 pmol/d/7 days, 6 rats
[13] = TABLE 1, 250 pmol/d/7 days, 5 rats
[14] = TABLE 1, 625 pmol/d/7 days, 5 rats
[15] = TABLE 1, 1300 pmol/d/7 days, 5 rats
[16] = TABLE 3, 625 pmol/d/7 days, 6 rats
[17] = TABLE 3, 1300 pmol/d/7 days, 6 rats

SMILES | EC50 [1] [nM] | Activity vs. 1,25(OH)2 D3 (HL-60 cells [2]) | EC50 (HL-60 cells [2]) [nM] | Activity vs. 1,25(OH)2 D3 [3] | SERUM CALCIUM (D deficient rat [4]; [9]) [mg/100 ml] | SERUM CALCIUM (D deficient rat [4]; [10]) [mg/100 ml] | SERUM CALCIUM (D deficient rat [4]; [11]) [mg/100 ml] | TRANSPORT (S/M) (D deficient rat [5]; [9]) | TRANSPORT (S/M) (D deficient rat [5]; [10]) | TRANSPORT (S/M) (D deficient rat [5]; [11]) | Activity vs. 1,25(OH)2 D3 (HL-60 cells [6]) | EC50 (HL-60 cells [6]) [nM] | SERUM CALCIUM (D deficient rat [4]; [12]) [mg/100 ml] | TRANSPORT (S/M) (D deficient rat [5]; [12]) | SERUM CALCIUM (D deficient rat [4]; [13]) [mg/100 ml] | SERUM CALCIUM (D deficient rat [4]; [14]) [mg/100 ml] | TRANSPORT (S/M) (D deficient rat [5]; [13]) | TRANSPORT (S/M) (D deficient rat [5]; [14]) | further results
C[C@H](CCCC(C)(C)O)[C@H]1CC[C@H]2/C(=C/C=C3C[C@@H](O)C[C@H](O)C3)CCC[C@]12C [19-nor-1,25(OH)2 D3, 19-nor-1,25-dihydroxyvitamin D3, reference compound] | 4.2 | 0.40 | 13 | 0.2 | 3.6 ± 0.1 | 3.6 ± 0.2 | 3.7 ± 0.2 | 4.8 ± 0.4 | 4.9 ± 0.5 | 4.8 ± 0.5 | 0.5 | 60 |  |  |  |  |  |  | 
C=C1/C(=C\C=C2/CCC[C@]3(C)[C@@H]([C@H](C)CCCC(C)(C)O)CC[C@@H]23)C[C@@H](O)C[C@@H]1O [1,25(OH)2 D3, 1α,25-dihydroxyvitamin D3] |  |  |  |  | 5.3 ± 0.3 |  |  | 7.8 ± 0.4 |  |  |  |  | 5.36 ± 0.27 | 7.18 ± 0.47 |  |  |  |  | antileukemic activity (induction of differentiation), in words (leukemia cells): potent antileukemic activity
C[C@@H](CCCC(C)(C)O)[C@H]1CC[C@H]2/C(=C/C=C3C[C@@H](O)C[C@H](O)C3)CCC[C@]12C [20-epi-19-nor-1,25(OH)2 D3, reference compound] | 0.8 | 25 | 0.2 | 1.0 | 5.7 ± 0.5 | 6.3 ± 0.4 | 6.6 ± 0.5 | 7.3 ± 0.1 | 8.2 ± 0.7 | 8.7 ± 0.7 | 7.5 | 4 |  |  |  |  |  |  | 
CC(C)CCC[C@@H](C)[C@H]1CC[C@H]2/C(=C/C=C3C[C@@H](O)C[C@H](O)C3)CCC[C@]12C [19-nor-1(OH)D3] |  |  |  |  |  |  |  |  |  |  |  |  |  |  | 3.4 ± 0.2 | 3.7 ± 0.2 | 6.3 ± 0.7 | 8.6 ± 0.7 | 
CC(C)CCC[C@H](C)[C@H]1CC[C@H]2/C(=C/C=C3C[C@@H](O)C[C@H](O)C3)CCC[C@]12C [20-epi-19-nor-1(OH)D3] | 600 |  |  | 0.0013 |  |  |  |  |  |  |  |  |  |  | 4.1 ± 0.1 | 5.4 ± 0.3 | 7.6 ± 0.5 | 9.2 ± 1.1 | SERUM CALCIUM (D deficient rat [4]; [15]): 6.7 ± 0.2 mg/100 ml; TRANSPORT (S/M) (D deficient rat [5]; [15]): 11.7 ± 1.4 S/M
CC(C)CCC[C@H](C)[C@H]1CC[C@@H]2/C(=C/C=C3C[C@@H](O)C[C@H](O)C3)CCC[C@@]21C [[28], 14-epi-20-epi-19-nor-1α-hydroxyvitamin D3] | > 1000 |  |  | < 0.0008 |  |  |  |  |  |  |  |  | 3.96 ± 0.05 | 3.80 ± 0.23 |  |  |  |  | in vivo activation / 25-hydroxylation / clearance, in words (D deficient rat [7]): has been 25-hydroxylated by the liver; also recorded: activated in vivo to the active drug product; SERUM CALCIUM (D deficient rat [4]; [16]): 4.11 ± 0.10 mg/100 ml; SERUM CALCIUM (D deficient rat [4]; [17]): 3.79 ± 0.05 mg/100 ml; effect on bone, in words (D deficient rat [4]): no activity on bone; TRANSPORT (S/M) (D deficient rat [5]; [16]): 5.14 ± 0.66 S/M; TRANSPORT (S/M) (D deficient rat [5]; [17]): 5.90 ± 0.49 S/M; activity on gut, in words (D deficient rat [5]; rat, in vivo): reduced activity on gut compared to the 25-hydroxy drug compound
C=C1/C(=C\C=C2/CCC[C@]3(C)[C@@H]([C@H](C)CCCC(C)C)CC[C@@H]23)C[C@@H](O)C[C@@H]1O [1(OH)D3, 1α-hydroxyvitamin D3] |  |  |  |  |  |  |  |  |  |  |  |  |  |  | 4.8 ± 0.3 | 5.9 ± 0.1 | 8.1 ± 0.1 | 10.6 ± 1.4 | antileukemic activity (induction of differentiation), in words (leukemia cells): potent antileukemic activity
C[C@@H](CCCC(C)(C)O)[C@H]1CC[C@@H]2/C(=C/C=C3C[C@@H](O)C[C@H](O)C3)CCC[C@@]21C [[29], 14-epi-20-epi-19-nor-1α,25-dihydroxyvitamin D3] | 2.5 | 10.0 | 0.5 | 0.33 |  |  |  |  |  |  | 45 | 0.66 | 4.02 ± 0.16 | 4.36 ± 0.30 |  |  |  |  | in vitro differentiative (D) and anti-proliferative (I) activity, in words (HL-60 cells [2]): most potent analog; times more potent than 1,25-(OH)2 D3 (D) (HL-60 cells [2]; differentiative (D)): 10 times; differentiative activity (D) used for T.P. (HL-60 cells [2]): 8.0; SERUM CALCIUM (D deficient rat [4]; [16]): 3.66 ± 0.06 mg/100 ml; SERUM CALCIUM (D deficient rat [4]; [17]): 4.10 ± 0.20 mg/100 ml; effect on bone, in words (D deficient rat [4]): no effect on bone at any of the doses tested; calcemic activity used for T.P. (D deficient rat [8]): < 0.2; calcemic activity, in words (D deficient rat [8]): greatly reduced; TRANSPORT (S/M) (D deficient rat [5]; [16]): 6.94 ± 0.27 S/M; TRANSPORT (S/M) (D deficient rat [5]; [17]): 7.14 ± 0.44 S/M; activity on gut, in words (D deficient rat [5]; rat, in vivo): only minimal gut activity; gut activity relative to the natural hormone (D deficient rat [5]; rat, in vivo): 20%; times more potent than 1,25-(OH)2 D3 (I) (HL-60 cells [6]; anti-proliferative (I)): 45 times; anti-proliferative activity (I) used for T.P. (HL-60 cells [6]): 56
C[C@H](CCCC(C)(C)O)[C@H]1CC[C@@H]2/C(=C/C=C3C[C@@H](O)C[C@H](O)C3)CCC[C@@]21C [[27], 14-epi-19-nor-1α,25-dihydroxyvitamin D3] | 4.5 | 0.33 | 15 | 0.18 | 3.6 ± 0.2 | 3.2 ± 0.1 | 3.4 ± 0.1 | 4.1 ± 0.4 | 3.2 ± 0.4 | 3.5 ± 0.3 | 0.4 | 80 |  |  |  |  |  |  | in vitro differentiative (D) and anti-proliferative (I) activity, in words (HL-60 cells [2]): approximately half as active as 1,25-(OH)2 D3; differentiative activity (D) used for T.P. (HL-60 cells [2]): 0.33; cellular activity, in words (HL-60 cells [2]; relative to native hormone): cellular activity similar to the native hormone; calcemic activity relative to the natural hormone (D deficient rat [8]; 5× the dose of 1,25-(OH)2 D3): less than 20%; calcemic activity used for T.P. (D deficient rat [8]): < 0.2; calcemic activity, in words (D deficient rat [8]): no calcemic activity at 5× the dose of 1,25-(OH)2 D3; also recorded: greatly reduced calcemic activity; anti-proliferative activity (I) used for T.P. (HL-60 cells [6]): 0.4
